Experimental data taken from patent US5871779A, “Treatment of arthropathies with vanadate compounds or analogues thereof” (Mount Sinai Hospital Corporation, priority 1996, dated 1999).

What was measured:
[1] = tested on: collagenase; assay: synovial collagenase expression in arthritic rats (Northern blot); format: in vivo, rat; details: BMOV-treated (with NAC) vs control, Day 18
Procedure: Collagenase, stromelysin, and IL-1 expression were quantitated in each group of rats. Selected rats in each group were sacrificed on Day 18 post arthritis onset to measure collagenase, stromelysin, and IL-1 expression via the Northern Blot. Synovial biopsies were pooled and homogenized in the presence of RNASTAT-60 (Tel Test). Total RNA was isolated following the manufacturer's instructions, washed in 70% ethanol, and dissolved in 30 μl RNA loading buffer (Sigma) containing ethidium bromide. The RNA was electrophoresed on a 1% agarose formaldehyde gel and transferred to 0.45 μm nylon filter membrane (Magna NT, MSL). The blot was prehybridised in 50% formamide, 5×SSPE, 5×dendhardts, 1% SDS, 200 μg/ml ssDNA and 50 μg/ml tRNA. The rat collagenase cDNA (bp. 1-550 of locus RATCOL genbank accession M60616), rat stromelysin (ATCC, Rockville, Md.), or rat […] (genbank accession D00403) were labeled by random primed incorporation of ^32 P-dATP (Random Primed Labeling Kit, Boerhinger Manheim). After overnight hybridization at 42° C. overnight, the blot was washed in 1×SSPE at 37° C. and exposed to Kodak X-Ornat AP film for 24 hours at -70° C. with an intensifying screen. The blot was stripped with 50% formamide in 2×SSPE, checked for residual counts and reprobed. The resulting autoradiographs were digitized and analyzed with NIH image software and normalized for RNA loading.

[2] = tested on: A431; assay: MTT cytotoxicity assay, A431; format: cell-based, human; details: A431, 72 hours
Procedure: (§1) The relative cytotoxicity of various compounds on tumor cell lines was investigated as follows. Cytotoxicity was measured by the MTT microculture tetrazolium colorimetric assay for all cell lines. The relative cytotoxicity of Na3 VO4 and VOSO4 was investigated using the following tumor cell lines: P388(WT) murine leukemia, P388 (ADR) murine leukemia, Lewis murine lung, MCF7 (WT) human breast, […] human lung, K562 human erythroleukemia, A431 human epidermal, LS180 human colon and SK-OV-3 human ovarian. The relative cytotoxicity of doxorubicin, Na3 VO4 and VOSO4 was investigated using the following tumor cell lines: P388(WT) murine leukemia, P388 (ADR) murine leukemia, MCF7(WT) human breast and MCF7 (ADR) human breast. The relative cytotoxicity of BMOV, BEOV and naglivan was investigated using the following tumor cell lines: P388(WT) murine leukemia, P388 (ADR) murine leukemia, Lewis murine lung, H460 human lung, K562 human erythroleukemia, and SK-OV-3 human ovarian.
(§2) The cells were plated (number of cells/well was different from cell line to cell depending on the dividing rate) in a 96-well microculture plate 24 hours prior to the delivery of the vanadium compounds. Serial concentrations of solutions of the test compounds (0.05-100 μM) were delivered to the corresponding wells. […] The absorbance of each well was read with a Titertek Multiskan (310C) spectrophotometer at 570 nm. […]

[3] = toxicity of orthovanadate by route of administration; format: in vivo, mice
From the text: However, subcutaneous injections of up to 500 μgms orthovanadate is tolerated by the animals. Slow administration of the orthovanadate would decrease toxicity and the animals may tolerate higher doses.

[4] = tested on: PGE2; assay: PGE2 production by chondrocytes (RIA); format: cell-based, bovine; details: 100 μM
Procedure: The effect of orthovanadate and N-acetylcysteine on fos, jun and collagenase expression were examined. Bovine articular chondrocytes were isolated and plated as previously described (Kandel R. A. et al. Biochim. Biophys. Acta. 1053, 130-134, 1990). In order to determine the effect of orthovanadate on IL 1 and PMA (phorbol ester) induced responses, chondrocytes were incubated with orthovanadate (100 μM) for 2 hours before stimulation with IL 1 (10 ng/ml) or PMA ([…]). Collagenase production was determined by incubating chondrocytes for 24 hours with IL 1 or PMA and the cell conditioned medium was assayed for collagenase activity using an ELISA procedure as described previously (Kandel et al. supra). PLA2 activity was measured by incorporating ^3 H-arachidonic acid (^3 H-AA) into the cells and then incubating the cells with medium containing 1 mg/ml BSA, either alone or in the presence of IL 1 or PMA, for 10 min. as previously described (Conquer, J. A. […], Biochim. Biophys. Acta. 1134, 1-6). The amount of ^3 H-AA liberated into the supernatant was determined. To measure PGE2 production, chondrocytes were incubated for 6 hours in Ham's F12 medium, either alone or with IL 1 or PMA. The supernatant was analyzed by RIA using an antibody specific for PGE2 (Dr. S. A. Jones, Mount Sinai Hospital, Toronto, Canada). […]

[5] = tested on: LS180; assay: MTT cytotoxicity assay, LS180; format: cell-based, human; details: LS180, 72 hours
Procedure: as §1, §2

[6] = tested on: tumor growth; assay: tumor growth in vivo, orthovanadate and N-acetylcysteine (Example 7); set-up: species or system mice
Procedure: Since N-acetylcysteine is converted to glutathione in cells, higher levels of glutathione may not only reduce orthovanadate induced toxicity but may also reduce tumor formation.
Twenty mice were injected subcutaneously with 2×10^5 cells on Day 1. At day 4, the mice were divided into four groups of five mice. Group one (control) received subcutaneous injections of 50 μl of water. Group two received daily intraperitoneal injections of 50 μl of 250 mM N-acetylcysteine. Group three received daily subcutaneous injections of 50 μl of 10 mg/ml of orthovanadate. Group four received daily intraperitoneal injections of 50 μl of […] N-acetylcysteine and 20 minutes later received 50 μl of subcutaneous injection of 50 μl of 10 mg/ml of orthovanadate. On day 10 the treatment was stopped. The animals were sacrificed on Day 13 and analyzed for tumor growth.

SMILES	percent inhibition of collagenase gene expression [1] [%]	IC50 [2] [µM]	toxicity, oral administration ([3]; 0.5 mg/ml oral)	toxicity, intraperitoneal administration ([3]; high doses i.p.)	tolerated subcutaneous injection ([3]; subcutaneous)	inhibition of IL 1 or PMA induced PGE2 production [4]	IC50 [5] [µM]	detectable tumors ([6]; day 13)	animal deaths ([6]; orthovanadate 50 μl 10 mg/ml s.c. daily)
Cc1occc(=O)c1[O-].Cc1occc(=O)c1[O-].[O]=[V+2] [BMOV, bis(methylmaltolato) oxovanadium (IV)]	78								
[Na+].[Na+].[Na+].[O]=[V]([O-])([O-])[O-] [orthovanadate, sodium orthovanadate]		7.6	gastric toxicity	toxic to the animals	up to 500 μgms	did not inhibit	16.4	two had no detectable tumors	One orthovanadate treated animal died
